Source: patent US10730882B2, “2-aminoquinazoline derivatives as P70S6 kinase inhibitors” (SENTINEL ONCOLOGY LIMITED, priority 2015, dated 2020)
Read-outs that look alike come from different tables or passages of the source.

Assays:
[1] = in vivo cassette mouse model: brain and plasma concentrations following oral dosing; details: male CD-1 mice, 2.5 mg/kg per compound; for Kp at 3 h: brain and plasma, read-out: (b) Brain:Plasma ratio at 3 hours
Procedure: (b) Evaluation of Brain and Plasma Concentrations in an In Vivo Cassette Mouse Model
The compounds of this invention were evaluated in an in vivo cassette mouse model to determine brain and plasma concentrations following oral dosing. This is an industry-standard and recognised means to assess brain penetration of small molecules (for recent literature article, refer to: in vitro permeability analysis, pharmacokinetic and brain distribution study in mice of imperatorin, isoimperatorin and cnidilin in Radix Angelicae Dahuricae, Fitoterapia, Volume 85, March 2013, Pages 144-153). It is also recognised that higher brain concentrations (and higher ratios of brain:plasma concentration) lead to greater exposure in the brain—this is clearly advantageous if the brain is the site of action.
For a single cassette study, male CD-1 mice were used (n=3 per timepoint, three timepoints: 1.0 hr, 3.0 hr and 8.0 hr).
5 compounds were dosed PO per cassette (dose level 2.5 mg/kg per compound, dose conc. 0.25 mg/ml, dose volume 10.0 ml/kg).
Formulation used to solubilize compounds: 10% DMSO/90% hydroxypropyl-β-cyclodextrin (20% w/v aqueous)
Sampling was terminal and plasma and brain matrices were generated. To prepare plasma samples, protein was precipitated using acetonitrile. To prepare brain samples, homogenisation and protein precipitation was performed with acetonitrile. Samples were analysed using HPLC-TOF MS using electrospray ionisation.
The brain and plasma concentrations and brain-plasma ratios observed for the compounds tested are set out in the table below.

FXS mice (Fmr1 KO) = experiment: audiogenic seizure assay (AGS), in vivo model of Fragile X Syndrome
Excerpt: (d) Evaluation of Compounds in the Audiogenic Seizure Assay, an In Vivo Model of Fragile X Syndrome (FXS)
Seizures occur in conjunction with FXS and autism in up to one-quarter of children with these disorders (Berry-Kravis E (2002) Epilepsy in fragile X syndrome. Dev. Med. Child Neurol. 44(11):724-728). […] The audiogenic seizure assay (AGS) is a well-documented mouse model of FXS (Audiogenic seizures susceptibility in transgenic mice with fragile X syndrome, Epilepsia. 2000 January; 41(1):19-23). In such a model it is possible to dose compounds to observe effects on susceptibility of the mice to audiogenic seizures. The following AGS experiment was set up to test the efficacy of compounds of this application:
The following experiment design was used:
Strain of FXS mouse used: FVB background
Vehicle used: 10% DMSO/90% hydroxypropyl-β-cyclodextrin (20% w/v aqueous)
Animals were assessed in AGS following 7 consecutive days of dosing.
The experimental chamber consisted of a plastic cage of dimensions 25×25×47 cm in which a doorbell (Electrical bell Heath Zenith, model 172C-A) had been mounted on the cage roof.
Mice were taken from their housing room one by one and transferred into the experimental chamber and allowed to explore the novel environment (basal noise […]) for a period of 30 seconds after which point the bell was rung (124 dB) for a period of 60 seconds.
The resulting motor responses were classified using a scale modified from the one originally described by Jobe et al. (1973): no response (NR: pause or continuous exploration), wild running (WR), seizure (S) or respiratory arrest and/or death (RA). The motor response rate is defined as the percentage of animals per group responding to the stimulus.

MDA-MB-231 cells = experiment: in vivo model of triple negative breast cancer (TNBC): tumour initiation and metastasis; design: species or system female athymic nude mice
Excerpt: (c) Evaluation of Efficacy of Compounds in Counter-Acting Tumour Initiation and Metastasis in an In Vivo Model of Triple Negative Breast Cancer (TNBC)
It is known that S6K1 has a crucial role in the recurrence of TNBC cancers following surgery, mainly through the activity of S6K1 in promoting survival of cancer cells in the host via phosphorylation and activation of the anti-apoptotic protein Bcl2 and of Gli1 (Belletti 2014). In addition, S6K1 promotes metastasis of TNBC cells (Akar 2010, Hung 2014).
In order to test the efficacy of an inhibitor of S6K1 in an in vivo model of tumour initiation and metastasis, the following experiment was established:
A total of 22 female athymic nude mice (Hsd:Athymic Nude-Foxn1^nu) were purchased from Harlan (UK) and acclimatised for 7 days prior to study commencement. Animals were housed in IVC cages (5 per cage) with individual mice identified by ear punch. All animals were allowed free access to a standard certified commercial diet and sanitised water during the study. The holding room was maintained under standard conditions: 20-24° C., 40-70% humidity and a 12 h light/dark cycle.
On day −1, animals were randomly assigned to treatment groups as indicated in the table below, and drug treatment commenced. On day 0, MDA-MB-231 cells (1×10^6 in matrigel) were implanted into the second mammary fat pad.
The dosing route was PO and the formulation was as follows: 10% DMSO/90% hydroxypropyl-β-cyclodextrin (20% w/v aqueous).
During the experiment, the following outcome measures were assessed:
(1) Time to palpation of tumour (latency) (2) tumour volume (3) tumour and organ weights as a measure of metastasis (4) visual appearance of metastatic nodules in the lungs.
At necroscopy the lungs of the vehicle and treated animals were examined for presence of metastatic nodules: […]

p70S6K (h) = p70S6K (h) (Homo sapiens (Human), UniProt P23443); experiment: p70S6K (h) kinase assay (radiometric, [γ-33P-ATP]); format: biochemical; details: read-out: (a) p70S6K1 IC50
Procedure: (a) Determination of p70S6 Inhibitory Activity
The ability of compounds of the invention to inhibit P70S6 kinase may be determined using the protocol below.
20 mM MOPS, 1 mM EDTA, 0.01% Brij-35, 5% Glycerol, 0.1% b-mercaptoethanol, 1 mg/mL BSA
In a final reaction volume of 25 μL, p70S6K (h) (5-10 mU) is incubated with 8 mM MOPS pH 7.0, 0.2 mM EDTA, 100 μM KKRNRTLTV, 10 mM Mg acetate and [γ-33P-ATP](specific activity approx. 500 cpm/pmol, concentration as required). The reaction is initiated by the addition of the MgATP mix. After incubation for 40 minutes at room temperature, the reaction is stopped by the addition of 5 μL of a 3% phosphoric acid solution. 10 μL of the reaction mixture is then spotted onto a P30 filtermat and washed three times for 5 minutes in 75 mM phosphoric acid and once in methanol prior to drying and scintillation counting.

[2] = brain, read-out: (b) Brain conc. at 3 hours
[3] = plasma, read-out: (b) Plasma conc. at 3 hours
[4] = FXS (Fmr1 KO) mice, n=10, 50 mg/kg QD x 7 PO, mono-HCl salt, bell 124 dB for 60 seconds
[5] = FXS mice, FVB background, following 7 consecutive days of dosing
[6] = mono-HCl salt, 100 mg/kg p.o. BID, 21 days, compared to control

Chain of p70S6K (h) (P23443 whole entry): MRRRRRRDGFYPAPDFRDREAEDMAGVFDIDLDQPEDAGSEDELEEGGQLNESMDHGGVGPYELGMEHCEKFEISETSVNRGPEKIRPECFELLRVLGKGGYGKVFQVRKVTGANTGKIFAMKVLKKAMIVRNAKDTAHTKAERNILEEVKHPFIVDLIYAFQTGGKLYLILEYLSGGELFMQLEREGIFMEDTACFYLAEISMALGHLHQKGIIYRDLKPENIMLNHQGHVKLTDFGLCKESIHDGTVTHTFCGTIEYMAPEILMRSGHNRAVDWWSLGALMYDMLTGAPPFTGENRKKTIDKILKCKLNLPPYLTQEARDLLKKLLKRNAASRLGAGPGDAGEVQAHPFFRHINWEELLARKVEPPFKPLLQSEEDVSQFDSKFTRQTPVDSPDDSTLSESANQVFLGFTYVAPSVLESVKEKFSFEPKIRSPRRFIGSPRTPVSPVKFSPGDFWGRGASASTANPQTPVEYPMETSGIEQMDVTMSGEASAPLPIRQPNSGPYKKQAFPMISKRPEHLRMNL

| Kp at 3 h [1] | concentration at 3 h [1, 2] [nM] | concentration at 3 h [1, 3] [nM] | IC50 (p70S6K (h)) [nM] | SMILES | NR (no response: pause or continuous exploration), number of animals (FXS mice (Fmr1 KO); [4]) | RA (respiratory arrest and/or death), number of animals (FXS mice (Fmr1 KO); [4]) | S (seizure), number of animals (FXS mice (Fmr1 KO); [4]) | WR (wild running), number of animals (FXS mice (Fmr1 KO); [4]) | incidence of audiogenic seizures (FXS mice (Fmr1 KO); [5]) | severity of response (audiogenic seizure) (FXS mice (Fmr1 KO); [5]) | Mean no. of lung nodules per animal (MDA-MB-231 cells; 100 mg/kg BID x 21, lungs examined at necroscopy, mono-HCl salt) | metastatic burden in the lungs (MDA-MB-231 cells; at necroscopy, spontaneous metastasis from a TNBC primary tumour) | tumour weight (MDA-MB-231 cells; day 21, mono-HCl salt, 100 mg/kg p.o. BID, compared to vehicle) | weight of liver (MDA-MB-231 cells; day 21, mono-HCl salt, 100 mg/kg p.o. BID, compared to vehicle treated group) | rate of incidence of tumour (MDA-MB-231 cells; [6]) | time until appearance (palpation) of tumour (MDA-MB-231 cells; [6]) | tumour volume (MDA-MB-231 cells; [6]) |
| --- | --- | --- | --- | --- | --- | --- | --- | --- | --- | --- | --- | --- | --- | --- | --- | --- | --- |
| 4 | 2420 | 600 | 10 | C[C@@H](Nc1ncc2cc(-c3ncnc4[nH]ncc34)ccc2n1)c1ccc(F)c(F)c1 [Example 19, [(R)-1-(3,4-Difluoro-phenyl)-ethyl]-[6-(1H-pyrazolo[3,4-d]pyrimidin-4-yl)-quinazolin-2-yl]-amine] |  |  |  |  |  |  |  |  |  |  |  |  |  |
| 2.6 | 1070 | 420 | 15 | C[C@@H](Nc1ncc2cc(-c3ncnc4[nH]ncc34)ccc2n1)c1ccccc1F [Example 28, [(R)-1-(2-Fluoro-phenyl)-ethyl]-[6-(1H-pyrazolo[3,4-d]pyrimidin-4-yl)-quinazolin-2-yl]-amine] |  |  |  |  |  |  |  |  |  |  |  |  |  |

| SMILES | Kp at 3 h [1] | concentration at 3 h [1, 2] [nM] | concentration at 3 h [1, 3] [nM] | IC50 (p70S6K (h)) [nM] | NR (no response: pause or continuous exploration), number of animals (FXS mice (Fmr1 KO); [4]) | RA (respiratory arrest and/or death), number of animals (FXS mice (Fmr1 KO); [4]) | S (seizure), number of animals (FXS mice (Fmr1 KO); [4]) | WR (wild running), number of animals (FXS mice (Fmr1 KO); [4]) | incidence of audiogenic seizures (FXS mice (Fmr1 KO); [5]) | severity of response (audiogenic seizure) (FXS mice (Fmr1 KO); [5]) | Mean no. of lung nodules per animal (MDA-MB-231 cells; 100 mg/kg BID x 21, lungs examined at necroscopy, mono-HCl salt) | metastatic burden in the lungs (MDA-MB-231 cells; at necroscopy, spontaneous metastasis from a TNBC primary tumour) | tumour weight (MDA-MB-231 cells; day 21, mono-HCl salt, 100 mg/kg p.o. BID, compared to vehicle) | weight of liver (MDA-MB-231 cells; day 21, mono-HCl salt, 100 mg/kg p.o. BID, compared to vehicle treated group) | rate of incidence of tumour (MDA-MB-231 cells; [6]) | time until appearance (palpation) of tumour (MDA-MB-231 cells; [6]) | tumour volume (MDA-MB-231 cells; [6]) |
| --- | --- | --- | --- | --- | --- | --- | --- | --- | --- | --- | --- | --- | --- | --- | --- | --- | --- |
| C[C@@H](Nc1ncc2cc(-c3ncnc4[nH]ncc34)ccc2n1)c1ccccc1 [Example 1, ((R)-1-Phenyl-ethyl)-[6-(1H-pyrazolo[3,4-d]pyrimidin-4-yl)-quinazolin-2-yl]-amine] | 2.7 | 1600 | 580 | 13 | 9 | 0 | 0 | 1 | reduced | reduced | 0 | effective in reducing the metastatic burden in the lungs | weighed significantly less | reduction in weight of liver | decreases the rate of incidence | delays time until appearance (palpation) of tumour | significant reduction in volume of tumours |
